Values after ≈ are worked out from the molar mass of the structure shown. Where a SMILES comes first, the peptide text is derived from it. The star is where a group is joined. Palmitoyl = CCCCCCCCCCCCCCCC(=O)*; Myristoyl = CCCCCCCCCCCCCC(=O)*
What was measured:
Type in all cases: cell-based
[1] = system: Aspergillus brasiliensis (ATCC 16404); conditions: ATCC 16404, 48 h
Summary of the method: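 CLSI broth microdilution: bacteria in Mueller-Hinton broth at 10^5 cfu/mL inoculum, 18 h at 37°C; fungi in Sabouraud Dextrose broth at 10^3 cfu/mL, 48 h at 25°C. MIC (μg/mL) is the lowest lipopeptide concentration inhibiting visible growth; triplicate on three days.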

[2] = system: Bacillus subtilis (ATCC 6633); conditions: for MIC Bacillus subtillis: ATCC 6633, 18 h; for MBC Bacillus subtillis: ATCC 6633, 24 h
Summary of the method: (§1)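 Broth microdilution per CLSI: Mueller-Hinton broth, 10^5 cfu/mL inoculum, 18 h at 37°C for bacteria; Sabouraud dextrose broth, 10^3 cfu/mL, 48 h at 25°C for fungi. MIC (μg/mL) is the lowest lipopeptide concentration inhibiting visible growth; MBC/MFC also determined. Triplicate on three days.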

[3] = system: Candida albicans (ATCC 10231); conditions: ATCC 10231, 48 h
Summary of the method: as §1

[4] = system: Candida tropicalis (PCM 2681); conditions: PCM 2681, 48 h
Summary of the method: as §1

[5] = system: Enterococcus faecalis (ATCC 29212); conditions: for MBC Enterococcus fecalis, lipopeptides without TFA counter ion / MIC Enterococcus fecalis / MIC Enterococcus fecalis, lipopeptides without TFA counter ion: ATCC 29212, 18 h; for MBC Enterococcus fecalis: ATCC 29212, 24 h
Summary of the method: as §1

[6] = system: Escherichia coli (ATCC 25922); conditions: for MBC Escherichia coli, lipopeptides without TFA counter ion / MIC Escherichia coli / MIC Escherichia coli, lipopeptides without TFA counter ion: ATCC 25922, 18 h; for MBC Escherichia coli: ATCC 25922, 24 h
Summary of the method: as §1

[7] = system: Klebsiella pneumoniae (ATCC 700603); conditions: for MBC Klebsiella pneumoniae, lipopeptides without TFA counter ion / MIC Klebsiella pneumoniae / MIC Klebsiella pneumoniae, lipopeptides without TFA counter ion: ATCC 700603, 18 h; for MBC Klebsiella pneumoniae: ATCC 700603, 24 h
Summary of the method: as §1

[8] = system: Proteus vulgaris (PCM 2668); conditions: 18 h
Summary of the method: as §1

[9] = system: Pseudomonas aeruginosa (ATCC 9027); conditions: ATCC 9027, 18 h
Summary of the method: as §1

[10] = system: Staphylococcus aureus (ATCC 25923); conditions: for MBC Staphylococcus aureus, lipopeptides without TFA counter ion / MIC Staphylococcus aureus / MIC Staphylococcus aureus, lipopeptides without TFA counter ion: ATCC 25923, 18 h; for MBC Staphylococcus aureus: ATCC 25923, 24 h
Summary of the method: as §1

[11] = system: Staphylococcus epidermidis (PCM 2118); conditions: for MIC Staphylococcus epidermidis: PCM 2118, 18 h; for MBC Staphylococcus epidermidis: PCM 2118, 24 h
Summary of the method: as §1

human red blood cells = conditions: 1 h
Summary of the method: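 Washed donor erythrocytes (4% v/v in PBS, EDTA-anticoagulated) incubated with graded lipopeptide concentrations for 1 h at 37 °C; hemoglobin release read at 550 nm in supernatants. Scaled between 0.1% Triton X-100 (100%) and PBS (0%); MHC is the lowest concentration giving 10% hemolysis.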

[12] = system: Pseudomonas aeruginosa (ATCC 9027); conditions: ATCC 9027, 24 h
[13] = system: Proteus vulgaris (PCM 2668); conditions: 24 h
[14] = system: Candida albicans (ATCC 10231)

Row | SMILES | MFC Aspergillus brasiliensis [1] | MIC Aspergillus brasiliensis [1] | MIC Bacillus subtillis [2] | MBC Bacillus subtillis [2] | MFC Candida albicans [3] | MIC Candida albicans [3] | MIC Candida albicans, lipopeptides without TFA counter ion [3] | MFC Candida tropicalis [4] | MIC Candida tropicalis [4] | MBC Enterococcus fecalis, lipopeptides without TFA counter ion [5] | MIC Enterococcus fecalis [5] | MIC Enterococcus fecalis, lipopeptides without TFA counter ion [5] | MBC Enterococcus fecalis [5] | MBC Escherichia coli, lipopeptides without TFA counter ion [6] | MIC Escherichia coli [6] | MIC Escherichia coli, lipopeptides without TFA counter ion [6] | MBC Escherichia coli [6] | MBC Klebsiella pneumoniae, lipopeptides without TFA counter ion [7] | MIC Klebsiella pneumoniae [7] | MIC Klebsiella pneumoniae, lipopeptides without TFA counter ion [7] | other results
1 | CCCCCCCCCCCCCCCC(=O)N[C@@H](CCCCN)C(=O)NCC(=O)N[C@@H](CCCCN)C(=O)NCC(N)=O [C16-KGKG-NH2] (Palmitoyl-KGKG-NH2) | 128 µg/mL (≈ 205 µM) | 128 µg/mL (≈ 205 µM) | 4 µg/mL (≈ 6.39 µM) | 4 µg/mL (≈ 6.39 µM) | 128 µg/mL (≈ 205 µM) | 128 µg/mL (≈ 205 µM) | 128 µg/mL (≈ 205 µM) | 256 µg/mL (≈ 409 µM) | 256 µg/mL (≈ 409 µM) | 16 µg/mL (≈ 25.6 µM) | 16 µg/mL (≈ 25.6 µM) | 16 µg/mL (≈ 25.6 µM) | 16 µg/mL (≈ 25.6 µM) | 8 µg/mL (≈ 12.8 µM) | 16 µg/mL (≈ 25.6 µM) | 8 µg/mL (≈ 12.8 µM) | 16 µg/mL (≈ 25.6 µM) | 32 µg/mL (≈ 51.1 µM) | 16 µg/mL (≈ 25.6 µM) | 16 µg/mL (≈ 25.6 µM) | MBC Klebsiella pneumoniae [7]: 16 µg/mL (≈ 25.6 µM); MIC Proteus vulgaris [8]: >512 µg/mL; MIC Pseudomonas aeruginosa [9]: 8 µg/mL (≈ 12.8 µM); MBC Staphylococcus aureus, lipopeptides without TFA counter ion [10]: 16 µg/mL (≈ 25.6 µM); MIC Staphylococcus aureus [10]: 16 µg/mL (≈ 25.6 µM); MIC Staphylococcus aureus, lipopeptides without TFA counter ion [10]: 8 µg/mL (≈ 12.8 µM); MBC Staphylococcus aureus [10]: 32 µg/mL (≈ 51.1 µM); MIC Staphylococcus epidermidis [11]: 4 µg/mL (≈ 6.39 µM); MBC Staphylococcus epidermidis [11]: 4 µg/mL (≈ 6.39 µM); Hemolysis HC10 (MHC), concentration of lipopeptide inducing 10% of hemolysis (human red blood cells): 64 µg/mL; MBC Pseudomonas aeruginosa [12]: 8 µg/mL (≈ 12.8 µM); MBC Proteus vulgaris [13]: >512 µg/mL; MFC Candida albicans, lipopeptides without TFA counter ion [14]: 128 µg/mL (≈ 205 µM)
2 | CCCCCCCCCCCCCCCC(=O)N[C@@H](CCCCN)C(=O)NCC(=O)N[C@@H](CCCCN)C(N)=O [C16-KGK-NH2] (Palmitoyl-Lys-Gly-Lys-NH2) | 128 µg/mL (≈ 225 µM) | 128 µg/mL (≈ 225 µM) | 4 µg/mL (≈ 7.03 µM) | 4 µg/mL (≈ 7.03 µM) | 128 µg/mL (≈ 225 µM) | 128 µg/mL (≈ 225 µM) | 128 µg/mL (≈ 225 µM) | 256 µg/mL (≈ 450 µM) | 256 µg/mL (≈ 450 µM) | 4 µg/mL (≈ 7.03 µM) | 8 µg/mL (≈ 14.1 µM) | 4 µg/mL (≈ 7.03 µM) | 16 µg/mL (≈ 28.1 µM) | 4 µg/mL (≈ 7.03 µM) | 8 µg/mL (≈ 14.1 µM) | 4 µg/mL (≈ 7.03 µM) | 8 µg/mL (≈ 14.1 µM) | 64 µg/mL (≈ 113 µM) | 16 µg/mL (≈ 28.1 µM) | 32 µg/mL (≈ 56.3 µM) | MBC Klebsiella pneumoniae [7]: 16 µg/mL (≈ 28.1 µM); MIC Proteus vulgaris [8]: >512 µg/mL; MIC Pseudomonas aeruginosa [9]: 16 µg/mL (≈ 28.1 µM); MBC Staphylococcus aureus, lipopeptides without TFA counter ion [10]: 4 µg/mL (≈ 7.03 µM); MIC Staphylococcus aureus [10]: 8 µg/mL (≈ 14.1 µM); MIC Staphylococcus aureus, lipopeptides without TFA counter ion [10]: 4 µg/mL (≈ 7.03 µM); MBC Staphylococcus aureus [10]: 8 µg/mL (≈ 14.1 µM); MIC Staphylococcus epidermidis [11]: 4 µg/mL (≈ 7.03 µM); MBC Staphylococcus epidermidis [11]: 4 µg/mL (≈ 7.03 µM); Hemolysis HC10 (MHC), concentration of lipopeptide inducing 10% of hemolysis (human red blood cells): 64 µg/mL; MBC Pseudomonas aeruginosa [12]: 32 µg/mL (≈ 56.3 µM); MBC Proteus vulgaris [13]: >512 µg/mL; MFC Candida albicans, lipopeptides without TFA counter ion [14]: 128 µg/mL (≈ 225 µM)
3 | CCCCCCCCCCCCCC(=O)N[C@@H](CCCCN)C(=O)N[C@@H](CCCCN)C(=O)N[C@@H](CCCCN)C(=O)N[C@@H](CCCCN)C(N)=O [C14-KKKK-NH2] (Myristoyl-KKKK-NH2) | 64 µg/mL (≈ 86.5 µM) | 64 µg/mL (≈ 86.5 µM) | 4 µg/mL (≈ 5.4 µM) | 4 µg/mL (≈ 5.4 µM) | 128 µg/mL (≈ 173 µM) | 128 µg/mL (≈ 173 µM) | 256 µg/mL (≈ 346 µM) | 128 µg/mL (≈ 173 µM) | 128 µg/mL (≈ 173 µM) | 64 µg/mL (≈ 86.5 µM) | 64 µg/mL (≈ 86.5 µM) | 64 µg/mL (≈ 86.5 µM) | 64 µg/mL (≈ 86.5 µM) | 256 µg/mL (≈ 346 µM) | 256 µg/mL (≈ 346 µM) | 256 µg/mL (≈ 346 µM) | 256 µg/mL (≈ 346 µM) | 128 µg/mL (≈ 173 µM) | 128 µg/mL (≈ 173 µM) | 128 µg/mL (≈ 173 µM) | MBC Klebsiella pneumoniae [7]: 256 µg/mL (≈ 346 µM); MIC Proteus vulgaris [8]: >512 µg/mL; MIC Pseudomonas aeruginosa [9]: 256 µg/mL (≈ 346 µM); MBC Staphylococcus aureus, lipopeptides without TFA counter ion [10]: 128 µg/mL (≈ 173 µM); MIC Staphylococcus aureus [10]: 128 µg/mL (≈ 173 µM); MIC Staphylococcus aureus, lipopeptides without TFA counter ion [10]: 128 µg/mL (≈ 173 µM); MBC Staphylococcus aureus [10]: 128 µg/mL (≈ 173 µM); MIC Staphylococcus epidermidis [11]: 16 µg/mL (≈ 21.6 µM); MBC Staphylococcus epidermidis [11]: 16 µg/mL (≈ 21.6 µM); Hemolysis HC10 (MHC), concentration of lipopeptide inducing 10% of hemolysis (human red blood cells): 256 µg/mL; MBC Pseudomonas aeruginosa [12]: 512 µg/mL (≈ 692 µM); MBC Proteus vulgaris [13]: >512 µg/mL; MFC Candida albicans, lipopeptides without TFA counter ion [14]: 256 µg/mL (≈ 346 µM)
4 | CCCCCCCCCCCCCCCC(=O)N[C@@H](CCCCN)C(N)=O [C16-K-NH2] | >512 µg/mL | >512 µg/mL | 8 µg/mL (≈ 20.9 µM) | 8 µg/mL (≈ 20.9 µM) | 512 µg/mL (≈ 1330 µM) | 512 µg/mL (≈ 1330 µM) | 512 µg/mL (≈ 1330 µM) | >512 µg/mL | >512 µg/mL | 32 µg/mL (≈ 83.4 µM) | 32 µg/mL (≈ 83.4 µM) | 32 µg/mL (≈ 83.4 µM) | 64 µg/mL (≈ 167 µM) | 512 µg/mL (≈ 1330 µM) | 512 µg/mL (≈ 1330 µM) | 512 µg/mL (≈ 1330 µM) | >512 µg/mL | 512 µg/mL (≈ 1330 µM) | 512 µg/mL (≈ 1330 µM) | 512 µg/mL (≈ 1330 µM) | MBC Klebsiella pneumoniae [7]: >512 µg/mL; MIC Proteus vulgaris [8]: >512 µg/mL; MIC Pseudomonas aeruginosa [9]: 512 µg/mL (≈ 1330 µM); MBC Staphylococcus aureus, lipopeptides without TFA counter ion [10]: 128 µg/mL (≈ 334 µM); MIC Staphylococcus aureus [10]: 512 µg/mL (≈ 1330 µM); MIC Staphylococcus aureus, lipopeptides without TFA counter ion [10]: 128 µg/mL (≈ 334 µM); MBC Staphylococcus aureus [10]: 512 µg/mL (≈ 1330 µM); MIC Staphylococcus epidermidis [11]: 8 µg/mL (≈ 20.9 µM); MBC Staphylococcus epidermidis [11]: 16 µg/mL (≈ 41.7 µM); Hemolysis HC10 (MHC), concentration of lipopeptide inducing 10% of hemolysis (human red blood cells): 512 µg/mL; MBC Pseudomonas aeruginosa [12]: >512 µg/mL; MBC Proteus vulgaris [13]: >512 µg/mL; MFC Candida albicans, lipopeptides without TFA counter ion [14]: 512 µg/mL (≈ 1330 µM)

Reference: publication PMC5285354, “Cationic Net Charge and Counter Ion Type as Antimicrobial Activity Determinant Factors of Short Lipopeptides” (Frontiers in Microbiology, 2017)
